Assay results taken from patent publication US8900591B2, “Vaccines comprising mutant GPCRs with increased conformational stability relative to parent receptors” (Heptares Therapeutics Limited, priority 2010, dated 2014).

Legend:
[1] = tested on: endogenous β1AR in untransfected HEK293s; assay: CRE-luc reporter assay on untransfected HEK293 cells; assay type: cell-based, human; conditions: 1 μM forskolin, non-transfected cells
Excerpt: One read-out that can be employed to assess the functional activity of the resulting sera is the impact on cAMP signalling. The CRE-luc reporter assay was employed where the CRE response from activation of AC-cAMP-PKA pathway is the read-out.
The first interim bleeds were initially evaluated only on transfected cells to assess if any functional response could be observed at this stage of immunisation. […].

[2] = tested on: 5-HT2A, 5-HT2B and 5-HT2C serotonin receptors; conditions: cited from earlier work

**Q.** Which “CRE-luc response to forskolin stimulation” value [1] does the source give for `C=C[C@@]1(C)CC(=O)[C@]2(O)[C@@]3(C)[C@@H](O)CCC(C)(C)[C@@H]3[C@H](O)[C@H](OC(C)=O)[C@@]2(C)O1` [forskolin] here?
**A.** ~20,000 RLU

**Q.** What does the source list for `C[C@@H](N)Cc1c2ccoc2c(Br)c2ccoc12` [Bromo-DragonFLY]?
**A.** potency for 5-HT2C receptors relative to 5-HT2A [2]: twice as potent; selectivity for 5-HT2A over 5-HT2B [2]: less than 5 ×
